Patent publication US20240226131A1, “2'-CHLORO-2'-FLUORO-N2-AMINO-N6-M[…] NUCLEOTIDES FOR […]” (priority 2021, published 2024)
pEC50: −log10 of the molar value.

Assays:
[1] = tested on: Yellow Fever virus (YFV 17D); test: microbe, parasite or virus in culture; format: cell-based; conditions: Huh-7, 120 h, read-out: EC50 (concentration required to prevent virus-induced CPE by 50%)
[2] = tested on: West Nile virus (WN02 Kern 515); test: microbe, parasite or virus in culture; format: cell-based; conditions: Huh-7, 144 h, read-out: EC50 (concentration required to prevent virus-induced CPE by 50%)
in vitro = conditions: human
[3] = tested on: Dengue virus (DENV-2), New Guinea C; test: microbe, parasite or virus in culture; format: cell-based; conditions: DENV2, Huh-7, 144 h, read-out: EC50 (concentration required to prevent virus-induced CPE by 50%)

Structure (SMILES): CNc1nc(N)nc2c1ncn2[C@@H]1O[C@H](CO[P@@](=O)(N[C@@H](C)C(=O)OC(C)C)Oc2ccccc2)[C@@H](O)[C@]1(F)Cl [Compound 8, (S)-Isopropyl-2-(((S)-(((2R,3R,4S,5R)-5-(2-amino-6-(methylamino)-9H-purin-9-yl)-4-chloro-4-fluoro-3-hydroxytetrahydrofuran-2-yl)methoxy)(phenoxy)phosphoryl)amino) propanoate]
- pEC50 [1]: 6.92
- pEC50 [2]: 6.49
- CC50 (in vitro): > 100000 nM
- pEC50 [3]: 6.49
